We go through 82 molecules from the METLIN SMRT retention time set (Domingo-Almenara et al. 2019).

The series in a line: gradient 5% acetonitrile 3 min, to 50% in 2 min, to 85% in 15 min, held 3 min, 100 µL/min. To be noted: column: Zorbax Extend-C18 2.1 x 50 mm; eluents: water / acetonitrile, 0.1% formic acid. Summed up: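 Each retention time is based on an adduct peak selected computationally and verified by manual inspection. Measurements used HPLC–quadrupole time-of-flight mass spectrometry in positive and negative ionization mode on mixtures of ~100 pure standards. Chromatography ran on a Zorbax Extend-C18 column (2.1 × 50 mm, 1.8 μm) at 100 μL/min with water and acetonitrile, each containing 0.1% formic acid, and dead and dwell volumes of 40 μL and 900 μL.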
`CSc1ccc(CNC(=O)c2ccc3ccnc(N4CCN(C(=O)c5ccco5)CC4)c3c2)cc1` had an RP-LC retention time of 732 s.

`Cc1cccc2nnc(N3CCN(C(=O)c4ccc(F)cc4)CC3)n12` showed an RP-LC retention time of 648 s.

`COc1ccc(NS(=O)(=O)c2cn(CC(C)C)c3ncccc23)cc1Cl` had an RP-LC retention time of 950 s.

In turn, `CSc1ccccc1NC(=O)c1nnn(-c2nc3c(s2)CCCC3)c1C` gave an RP-LC retention time of 972 s.

For the molecule `COc1ncccc1CNC(=O)c1sccc1C`, the RP-LC retention time was found to be 746 s.

Take `Cc1ccc2c(c1)C(=O)NC1(CCN(C(=O)c3ccc(F)c(Cl)c3)CC1)N2C`: the RP-LC retention time is 919 s.

In the case of `O=C(Cc1ccsc1)NCCn1c(=O)n(Cc2ccc(F)cc2)c2cccnc21`, the RP-LC retention time is 781 s.

For the molecule `CCN(CCN(C)C)C(=O)c1c2c(nc3ccccc13)C(=O)N(C1CCCCC1)C2`, the RP-LC retention time is 601 s.

As for `CN(Cc1ccc(F)cc1Cl)C1CCc2nnc(C3CCOCC3)n2CC1` (configuration not stated), the RP-LC retention time is 561 s.

`C=CCN1C(=O)COc2ccc(-c3nc(NC(=O)C(C)(C)C)sc3C)cc21` registered an RP-LC retention time of 1010 s.

Molecule `Cc1ccc(CNC(=O)C2CCCN(C(=O)c3[nH]c(C)c(C(=O)OC(C)C)c3C)C2)cc1` (configuration not stated) had an RP-LC retention time of 893 s.

In the case of `Cc1ccc(NC(=O)N2CCN(c3cc(C)nc(N4CCOCC4)n3)CC2)c(Cl)c1`, the RP-LC retention time was found to be 669 s.

For `CCc1cccc(NC(=O)Cn2c(-c3cnccn3)nc(C)c(C)c2=O)c1`, the RP-LC retention time came out at 809 s.

In turn, `CCOC(=O)N1CCC(NC(=O)C2CCCN(Cc3nc(-c4cccnc4)no3)C2)CC1` (configuration not stated) had an RP-LC retention time of 559 s.

Consider `CCCn1nnc(NCc2ccc(-c3cccc(Cl)c3C)o2)n1`, for which the RP-LC retention time was found to be 1130 s.

For `CNC(=O)c1cc(=O)[nH]c2ccccc12`, the RP-LC retention time worked out at 580 s.

With `COCCN1C(=O)CCc2cc(NC(=O)c3cncc(Br)c3)ccc21`, the RP-LC retention time is 716 s.

As to `Cc1ccc(CNC(=O)C2(C)Cn3nc(C(=O)NCc4ccc(F)cc4)cc3C(=O)N2C)cc1` (configuration not stated), the RP-LC retention time came out at 783 s.

Molecule `CC(C)Cn1c(=O)c(C(=O)NCCCc2ccccc2)nc2cccnc21` showed an RP-LC retention time of 888 s.

The molecule `COC(=O)c1c(NCC(C)O)c2cccc(Cl)c2[nH]c1=O` (configuration not stated) returned an RP-LC retention time of 610 s.

Turning to `CCNc1cc(N2CCC(CCC(=O)NCCC(C)C)CC2)ncn1`, the RP-LC retention time turned out to be 538 s.

Molecule `Cc1cccc(Cn2c(=O)n(CCNC(=O)C3CCOC3)c3ncccc32)c1` (configuration not stated) displayed an RP-LC retention time of 698 s.

`Cc1cc(Nc2ccc(NC(=O)c3ccc4c(c3)OCO4)cc2)nc(N2CCOCC2)n1` showed an RP-LC retention time of 656 s.

The molecule `Cc1ccc(N2CCC(NC(=O)C3CCCC3)C2=O)cc1` (configuration not stated) displayed an RP-LC retention time of 762 s.

`Clc1ccc(C2CC3CCC2N3)cn1` (configuration not stated) returned an RP-LC retention time of 613 s.

As to `Cc1cc(S(=O)(=O)N2CCC(n3cnnc3-c3ccccc3)CC2)ccc1Cl`, the RP-LC retention time stood at 869 s.

Molecule `Cc1cccc(-c2ncccc2CNS(=O)(=O)Cc2cccc(F)c2)c1` returned an RP-LC retention time of 774 s.

Consider `O=C(COc1ccc(Cl)cc1)N1CCN(c2nc(CN3CCOCC3)cs2)CC1`, for which the RP-LC retention time was 643 s.

For `CSc1ccc(CNC(=O)c2nnn3c2COC(c2ccc(F)cc2)C3)cc1` (configuration not stated), the RP-LC retention time was 980 s.

In the case of `COCCCNC(=O)CN1CCN(c2cc(C(=O)O)c3cc(NC(=O)C4CCCC4)ccc3n2)CC1`, the RP-LC retention time was 575 s.

As to `CC(C)Cn1nc(CNC(=O)CSc2ccncc2)c2ccccc21`, the RP-LC retention time stood at 632 s.

`CCOc1cc2ncc(C#N)c(Nc3ccc(OCc4ccccn4)c(Cl)c3)c2cc1NC(=O)/C=C/CN(C)C` came in with an RP-LC retention time of 620 s.

Regarding `CCc1cc(C(=O)Nc2ccc(F)cc2C)nc2ccnn12`, the RP-LC retention time stood at 1140 s.

The molecule `O=C(C1CCN(c2ncnc3c2oc2ccccc23)CC1)N1CCN(C2CCCCC2)CC1` showed an RP-LC retention time of 590 s.

`CCOc1ccc(C(C)NC(=O)c2cn3nc(OCC)ccc3n2)cc1` (configuration not stated): the RP-LC retention time was determined as 935 s.

`Fc1ccccc1N1CCN(c2ncccc2-c2nc(-c3ccccc3)no2)CC1` displayed an RP-LC retention time of 1390 s.

For `Cc1ccc(NC(=O)N2CCC(c3cc(N)on3)CC2)cc1Cl`, the RP-LC retention time is 774 s.

Consider `O=C(Cn1ccc2sccc2c1=O)Nc1ccc(F)cc1`, for which the RP-LC retention time came to 728 s.

In turn, `Cc1ccc(NC(=O)Cn2nnc(C(=O)NCc3cccs3)c2N)cc1` had an RP-LC retention time of 593 s.

`CO[C@H]1C(=O)N(C2CCN(S(=O)(=O)c3c(C)noc3C)CC2)[C@H]1c1ccncc1` yielded an RP-LC retention time of 625 s.

The molecule `Cc1ccc(NC(=O)Cn2c(=O)n(-c3ccccc3)c3ncccc32)cc1C` had an RP-LC retention time of 906 s.

Molecule `COc1cc(OC)c(NC(=O)NCC2(N3CCOCC3)CCOC2)cc1Cl` (configuration not stated) showed an RP-LC retention time of 612 s.

On to `Cc1cccc(CNC(=O)C2(C)Oc3cccnc3N(C)C2=O)c1` (configuration not stated), for which the RP-LC retention time amounted to 876 s.

For `Cc1nn(C)c(C)c1C(C)NC(=O)CCC1CCCN(c2cc(NC3CC3)ncn2)C1` (configuration not stated), the RP-LC retention time worked out at 594 s.

Regarding `Cc1cccc(-c2nc(-c3cccc(-c4ccnn4C)c3)no2)c1`, the RP-LC retention time worked out at 1220 s.

`CNC(=O)c1csc(N2CCCC2)n1` yielded an RP-LC retention time of 671 s.

In turn, `COC(=O)c1ccc2c(=O)n(-c3ccccc3)c(N3CCCCCC3)nc2c1` returned an RP-LC retention time of 1240 s.

On to `CCn1cc(S(=O)(=O)N2C[C@H]3CN(S(=O)(=O)c4cccc(C)c4)C[C@@H](C2)O3)cn1`, for which the RP-LC retention time turned out to be 833 s.

Molecule `O=C(NCC1CCOCC1)Nc1ccc(F)c(Cl)c1` gave an RP-LC retention time of 728 s.

Consider `Cc1ccc(Cc2nnc(NC(=O)c3cc(C)n(C(C)C)n3)o2)cc1`, for which the RP-LC retention time came out at 802 s.

In turn, `CC1CCc2c(sc(NC(=O)Cc3ccc4c(c3)OCO4)c2C#N)C1` (configuration not stated) gave an RP-LC retention time of 1070 s.

Consider `CCCN1C(=O)c2cccnc2Sc2cc(C(=O)NC(C)C)ccc21`, for which the RP-LC retention time came out at 753 s.

Molecule `O=C(NCc1cccc(Cl)c1)C1CCCN(c2nc3cccnc3n(Cc3ccccc3)c2=O)C1` (configuration not stated) gave an RP-LC retention time of 1190 s.

Consider `O=C(NCC1CCS(=O)(=O)C1)c1cc(-c2ccc(F)cc2)n[nH]1` (configuration not stated), for which the RP-LC retention time came to 643 s.

`CCN(Cc1ccccc1)Cc1nc(-c2ccc(N3CCCC3)nc2)no1` came in with an RP-LC retention time of 640 s.

Molecule `CCN(CC)C(=O)COc1cc(C(F)(F)F)c2c(C)nn(-c3ccc(C)cc3)c2n1` displayed an RP-LC retention time of 1250 s.

`NC(=O)C1CCN(C(c2ccccc2F)c2sc3nc(-c4ccco4)nn3c2O)CC1` (configuration not stated) showed an RP-LC retention time of 677 s.

Regarding `Cn1cnnc1C1CCCCN1C(=O)c1cc(-c2cccs2)[nH]n1` (configuration not stated), the RP-LC retention time is 637 s.

`COc1cccc2sc(N3CCN(C(=O)C4CCN(S(C)(=O)=O)CC4)CC3)nc12` had an RP-LC retention time of 697 s.

For the molecule `Cc1ccc(C)c(N2CCN(C(=O)c3c(C)oc4nc(C)nc(N5CCOCC5)c34)CC2)c1`, the RP-LC retention time is 1020 s.

Turning to `O=C(CN1CCN(C(=O)Nc2ccc(Cl)cc2)CC1=O)NC1CC1`, the RP-LC retention time came out at 605 s.

Regarding `COc1ccc(C2Cn3nnc(-c4nc(C)no4)c3CO2)cc1` (configuration not stated), the RP-LC retention time came to 833 s.

Turning to `Cc1cc(N2CCN(S(=O)(=O)c3ccc(F)c(F)c3)CC2)nc(N2CCCC2)n1`, the RP-LC retention time was determined as 720 s.

Molecule `CCOC(=O)c1noc2ncnc(Nc3cc(F)ccc3F)c12` showed an RP-LC retention time of 799 s.

In turn, `COc1ccc(-c2nnc(-c3cc(S(=O)(=O)NCC(=O)O)ccc3Cl)o2)cc1` yielded an RP-LC retention time of 772 s.

For `COC(=O)c1c(NCc2ccccc2)c2cccc(Cl)c2[nH]c1=O`, the RP-LC retention time worked out at 786 s.

For the molecule `CCN1C(=O)C2(CCN(C(C)=O)CC2)c2ccccc21`, the RP-LC retention time is 707 s.

For `CCOc1ccc(NC(=O)N2CCCC2c2nc(-c3ccc(OC)cc3)no2)cc1` (configuration not stated), the RP-LC retention time was determined as 940 s.

As to `Cc1cc(Cl)ccc1-n1ncc2c(N3CCN(CCO)CC3)ncnc21`, the RP-LC retention time came to 613 s.

For `CCCn1ncc(N2CCC(C(=O)NCc3cccc(F)c3)CC2)cc1=O`, the RP-LC retention time came to 706 s.

Consider `Fc1ccc(OCc2nc(-c3cccc(-c4ccn[nH]4)c3)no2)cc1`, for which the RP-LC retention time turned out to be 939 s.

With `O=C(O)c1cc(=O)c2cc(Cl)ccc2[nH]1`, the RP-LC retention time is 692 s.

The molecule `CCc1ccc(S(=O)(=O)c2cnc(N3CCN(c4ccccn4)CC3)nc2N)cc1` registered an RP-LC retention time of 680 s.

Take `Cc1cc(NC(=O)CSc2ccc(-c3cccc([N+](=O)[O-])c3)nn2)no1`: the RP-LC retention time came to 752 s.

`Cc1nc(-c2ccccc2)sc1CC(=O)NCCSc1nncn1C` returned an RP-LC retention time of 626 s.

In the case of `Cc1noc(-c2nc(-c3cccc(F)c3)no2)n1`, the RP-LC retention time is 990 s.

In turn, `COc1cccc(N2CCN(S(=O)(=O)c3cc(-c4cc(C(F)(F)F)[nH]n4)sc3C)CC2)c1` registered an RP-LC retention time of 1120 s.

`Cc1noc(C)c1-c1ccc(S(=O)(=O)Nc2ccc(F)cc2)cc1` showed an RP-LC retention time of 904 s.

The molecule `C=CCn1nnnc1NCc1ccc2c(c1)n(C)c(=O)n2C` displayed an RP-LC retention time of 609 s.

The molecule `CCNC(=O)N1CCCN(S(C)(=O)=O)CC1` registered an RP-LC retention time of 566 s.

In turn, `COC(=O)Nc1nc2ccc(Br)cc2[nH]1` showed an RP-LC retention time of 642 s.

As for `Cc1nc(-c2cc(S(=O)(=O)N3CCC(C(=O)NCCN4CCCCCC4)CC3)c(C)s2)no1`, the RP-LC retention time turned out to be 666 s.
